In assay [1] the target is T1, RORγt (Homo sapiens, UniProt P51449).
T1 sequence (P51449 1-497 isoform P51449-2): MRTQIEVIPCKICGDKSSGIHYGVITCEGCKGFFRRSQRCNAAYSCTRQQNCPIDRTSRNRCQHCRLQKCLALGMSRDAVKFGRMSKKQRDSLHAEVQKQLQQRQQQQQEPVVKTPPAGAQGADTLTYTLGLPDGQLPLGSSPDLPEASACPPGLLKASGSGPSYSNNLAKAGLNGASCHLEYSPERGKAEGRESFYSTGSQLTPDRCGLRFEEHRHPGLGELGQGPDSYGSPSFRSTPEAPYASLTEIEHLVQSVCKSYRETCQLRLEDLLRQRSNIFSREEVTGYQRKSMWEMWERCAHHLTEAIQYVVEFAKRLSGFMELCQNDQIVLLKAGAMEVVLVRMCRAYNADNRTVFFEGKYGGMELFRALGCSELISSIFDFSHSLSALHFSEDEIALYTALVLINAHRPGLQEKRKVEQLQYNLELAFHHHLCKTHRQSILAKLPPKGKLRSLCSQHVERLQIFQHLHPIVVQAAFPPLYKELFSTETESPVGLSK
Nature of the assay: RORγt binding test (TR-FRET, fluorescent-labeled cholesterol). Conditions: read-out: binding inhibitory rate (%) of fluorescent-labeled cholesterol to RORγt at test compound 1 μM. The method, boiled down:
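His-tagged RORγt and BODIPY-cholesterol were incubated with compound for 20 min at room temperature in Tris-HCl pH 7.5, 100 mM NaCl, 1 mM DTT and 0.1% BSA. Terbium anti-His antibody was then added for a further 20 min.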

For assay [2], the target named is T1, RORγt. Nature of the assay: Cofactor recruitment test (Alpha Screen, biotinylated SRC-1 peptide). Format: biochemical. To be noted: read-out: signal value inhibitory rate (%) at test compound 1 μM. How it is done: Cofactor Recruitment Test
Cofactor recruitment test was performed by Alpha Screen (Histidine Detection Kit, PerkinElmer) method. First, a test compound was diluted with an assay buffer (50 mM Tris-HCl (pH 7.5), 50 mM KCl, 1 mM DTT, 0.1% BSA) and added to a 384 well plate by 5 μL. […] The mixture was stood in a dark place for 1 hr, and the signal value was measured by Envision (PerkinElmer).

Assay [3] concerns the target T1, RORγt. Nature of the assay: Jurkat reporter test (human IL-17 ROR response element luciferase reporter). To be noted: Jurkat, read-out: luminescence level inhibitory rate (%) at test compound 3 μM. Format: cell-based. In short, it runs like this:
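Luminescence (Bright-Glo, 10 min, RT) was measured after overnight compound treatment of electroporated Jurkat cells (1350 V, 10 ms interval, 3 pulses). The reaction medium was RPMI with 10% lipid-reduced FCS, 10 mM HEPES (pH 7.5) and 5 μM lovastatin.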

On to `COCc1ccc([C@@H](NC(=O)Cn2cnccc2=O)C(=O)Nc2ccc([Si](C)(C)C)c(F)c2)cc1` [Example 53, (2R)—N-(3-fluoro-4-(trimethylsilyl)phenyl)-2-(4-(methoxymethyl)phenyl)-2-(((6-oxopyrimidin-1(6H)-yl)acetyl)amino)acetamide], for which the inhibition at 1 µM in assay [1] was found to be 102%; in assay [2], 97.8%. In addition, in assay [3], the inhibition at 3 µM was 98.4%.
In the same order, the values of `COCc1ccc([C@@H](NC(=O)[C@H]2CNC(=O)C2)C(=O)Nc2ccc([Si](C)(C)C)c(F)c2)cc1` [Example 54, (3R)—N-((1R)-2-((3-fluoro-4-(trimethylsilyl)phenyl)amino)-1-(4-(methoxymethyl)phenyl)-2-oxoethyl)-5-oxopyrrolidine-3-carboxamide] are 102%, 95.6% and 99%.
`COCc1ccc([C@@H](NC(=O)[C@H]2CNC(=O)C2)C(=O)Nc2cc(F)c([Si](C)(C)C)cc2F)cc1` [Example 55, (3R)—N-((1R)-2-((2,5-difluoro-4-(trimethylsilyl)phenyl)amino)-1-(4-(methoxymethyl)phenyl)-2-oxoethyl)-5-oxopyrrolidine-3-carboxamide]: the inhibition at 1 µM in assay [1] was determined as 102%; in assay [2] it was 95.8%. Further, in assay [3], the inhibition at 3 µM worked out at 98.6%.
For the compound `COCc1ccc([C@@H](NC(=O)Cc2nnc(C)o2)C(=O)Nc2cc(F)c([Si](C)(C)C)cc2F)cc1` [Example 56, (2R)—N-(2,5-difluoro-4-(trimethylsilyl)phenyl)-2-(4-(methoxymethyl)phenyl)-2-(((5-methyl-1,3,4-oxadiazol-2-yl)acetyl)amino)acetamide], the inhibition at 1 µM in assay [1] came to 102%; in assay [2], 97.7%. For the same compound, the inhibition at 3 µM in assay [3] was 100%.
The corresponding values for `COCc1ccc([C@@H](NC(=O)Cn2cnccc2=O)C(=O)Nc2cc(F)c([Si](C)(C)C)cc2F)cc1` [Example 57, (2R)—N-(2,5-difluoro-4-(trimethylsilyl)phenyl)-2-(4-(methoxymethyl)phenyl)-2-(((6-oxopyrimidin-1(6H)-yl)acetyl)amino)acetamide] are 103%, 97.3% and 98.9%.
The corresponding values for `COCc1ccc([C@@H](NC(=O)Cn2cnccc2=O)C(=O)Nc2cc(F)c([Si](C)(C)C)c(F)c2)cc1` [Example 58, (2R)—N-(3,5-difluoro-4-(trimethylsilyl)phenyl)-2-(4-(methoxymethyl)phenyl)-2-(((6-oxopyrimidin-1(6H)-yl)acetyl)amino)acetamide] are 102%, 97.1% and 98.4%.
The corresponding values for `COCc1ccc([C@@H](NC(=O)Cn2ccc(=O)[nH]c2=O)C(=O)Nc2ccc([Si](C)(C)C)c(F)c2)cc1` [Example 59, (2R)-2-(((2,4-dioxo-3,4-dihydropyrimidin-1(2H)-yl)acetyl)amino)-N-(3-fluoro-4-(trimethylsilyl)phenyl)-2-(4-(methoxymethyl)phenyl)acetamide] are 102%, 96% and 99.2%.
In the case of `COCc1ccc([C@@H](NC(=O)Cn2c(=O)cc[nH]c2=O)C(=O)Nc2ccc([Si](C)(C)C)c(F)c2)cc1` [Example 60, (2R)-2-(((2,6-dioxo-3,6-dihydropyrimidin-1 (2H)-yl)acetyl)amino)-N-(3-fluoro-4-(trimethylsilyl)phenyl)-2-(4-(methoxymethyl)phenyl)acetamide], the inhibition at 1 µM in assay [1] is 102%; in assay [2], 96.6%. Also, the inhibition at 3 µM in assay [3] turned out to be 99.7%.
The corresponding values for `COCc1ccc([C@@H](NC(=O)Cn2nc(C)ccc2=O)C(=O)Nc2cc(F)c([Si](C)(C)C)c(F)c2)cc1` [Example 61, (2R)—N-(3,5-difluoro-4-(trimethylsilyl)phenyl)-2-(4-(methoxymethyl)phenyl)-2-(((3-methyl-6-oxopyridazin-1(6H)-yl)acetyl)amino)acetamide] are 102%, 97% and 100%.
In the same order, the values of `COCc1ccc([C@@H](NC(=O)CN2C(=O)CNC2=O)C(=O)Nc2ccc([Si](C)(C)C)c(F)c2)cc1` [Example 62, (2R)-2-(((2,5-dioxoimidazolidin-1-yl)acetyl)amino)-N-(3-fluoro-4-(trimethylsilyl)phenyl)-2-(4-(methoxymethyl)phenyl)acetamide] are 99.9%, 96.3% and 97.8%.
The corresponding values for `COCc1ccc([C@@H](NC(=O)Cn2ccc(=O)cn2)C(=O)Nc2ccc([Si](C)(C)C)c(F)c2)cc1` [Example 63, (2R)—N-(3-fluoro-4-(trimethylsilyl)phenyl)-2-(4-(methoxymethyl)phenyl)-2-(((4-oxopyridazin-1(4H)-yl)acetyl)amino)acetamide] are 103%, 95.1% and 99.7%.
In the case of `COc1ccc([C@@H](NC(=O)N2CC[C@H](O)C2)C(=O)Nc2ccc([Si](C)(C)C)c(F)c2)cc1` [Example 64, (3S)—N-((1R)-2-((3-fluoro-4-(trimethylsilyl)phenyl)amino)-1-(4-methoxyphenyl)-2-oxoethyl)-3-hydroxypyrrolidine-1-carboxamide], the inhibition at 1 µM in assay [1] was determined as 102%; in assay [2], 90.1%. Besides, in assay [3], the inhibition at 3 µM worked out at 98.7%.
In the same order, the values of `COCc1ccc([C@@H](NC(=O)N2CC[C@H](O)C2)C(=O)Nc2ccc([Si](C)(C)C)c(F)c2)cc1` [Example 65, (3S)—N-((1R)-2-((3-fluoro-4-(trimethylsilyl)phenyl)amino)-1-(4-(methoxymethyl)phenyl)-2-oxoethyl)-3-hydroxypyrrolidine-1-carboxamide] are 102%, 94.3% and 98.5%.
In the same order, the values of `COCc1ccc([C@@H](NC(=O)N2CC[C@@H](O)C2)C(=O)Nc2ccc([Si](C)(C)C)c(F)c2)cc1` [Example 66, (3R)—N-((1R)-2-((3-fluoro-4-(trimethylsilyl)phenyl)amino)-1-(4-(methoxymethyl)phenyl)-2-oxoethyl)-3-hydroxypyrrolidine-1-carboxamide] are 103%, 94.6% and 98.5%.
The corresponding values for `COCc1ccc([C@@H](NC(=O)Cc2nnc(C)o2)C(=O)Nc2ccc([Si](C)(C)C)c(F)c2)cc1` [Example 67, (2R)—N-(3-fluoro-4-(trimethylsilyl)phenyl)-2-(4-(methoxymethyl)phenyl)-2-(((5-methyl-1,3,4-oxadiazol-2-yl)acetyl)amino)acetamide] are 103%, 96% and 98.5%.
Regarding `COCc1ccc([C@@H](NC(=O)[C@H]2CNC(=O)C2)C(=O)Nc2cc(F)c([Si](C)(C)C)c(F)c2)cc1` [Example 68, (3R)—N-((1R)-2-((3,5-difluoro-4-(trimethylsilyl)phenyl)amino)-1-(4-(methoxymethyl)phenyl)-2-oxoethyl)-5-oxopyrrolidine-3-carboxamide], the inhibition at 1 µM in assay [1] was 101%; in assay [2] it was 96.2%. Moreover, the inhibition at 3 µM in assay [3] was found to be 98.7%.
The corresponding values for `COCc1ccc([C@@H](NC(=O)N2CC(O)C2)C(=O)Nc2ccc([Si](C)(C)C)c(F)c2)cc1` [Example 69, N-((1R)-2-((3-fluoro-4-(trimethylsilyl)phenyl)amino)-1-(4-(methoxymethyl)phenyl)-2-oxoethyl)-3-hydroxyazetidine-1-carboxamide] are 103%, 96.8% and 98.4%.
In the same order, the values of `COc1ccc([C@@H](NC(=O)[C@H]2CNC(=O)C2)C(=O)Nc2ccc([Si](C)(C)C)c(F)c2)cc1` [Example 70, (3R)—N-((1R)-2-((3-fluoro-4-(trimethylsilyl)phenyl)amino)-1-(4-methoxyphenyl)-2-oxoethyl)-5-oxopyrrolidine-3-carboxamide] are 101%, 82.8% and 96.5%.
